This note sets out measurements from US10435399B2, “HDAC6 inhibitory heterocyclic compound” (TAKEDA PHARMACEUTICAL COMPANY LIMITED, priority 2017, dated 2019).

Structures are written as SMILES.

The first assay deals with T1, HDAC6 enzyme (Homo sapiens, UniProt Q9UBN7).
T1 construct: transducing full length HDAC6 gene into Sf-9 insect cells; GST; purchased SignalChem; host or cells: Sf-9 insect cells
T1 sequence (Q9UBN7 1-1215): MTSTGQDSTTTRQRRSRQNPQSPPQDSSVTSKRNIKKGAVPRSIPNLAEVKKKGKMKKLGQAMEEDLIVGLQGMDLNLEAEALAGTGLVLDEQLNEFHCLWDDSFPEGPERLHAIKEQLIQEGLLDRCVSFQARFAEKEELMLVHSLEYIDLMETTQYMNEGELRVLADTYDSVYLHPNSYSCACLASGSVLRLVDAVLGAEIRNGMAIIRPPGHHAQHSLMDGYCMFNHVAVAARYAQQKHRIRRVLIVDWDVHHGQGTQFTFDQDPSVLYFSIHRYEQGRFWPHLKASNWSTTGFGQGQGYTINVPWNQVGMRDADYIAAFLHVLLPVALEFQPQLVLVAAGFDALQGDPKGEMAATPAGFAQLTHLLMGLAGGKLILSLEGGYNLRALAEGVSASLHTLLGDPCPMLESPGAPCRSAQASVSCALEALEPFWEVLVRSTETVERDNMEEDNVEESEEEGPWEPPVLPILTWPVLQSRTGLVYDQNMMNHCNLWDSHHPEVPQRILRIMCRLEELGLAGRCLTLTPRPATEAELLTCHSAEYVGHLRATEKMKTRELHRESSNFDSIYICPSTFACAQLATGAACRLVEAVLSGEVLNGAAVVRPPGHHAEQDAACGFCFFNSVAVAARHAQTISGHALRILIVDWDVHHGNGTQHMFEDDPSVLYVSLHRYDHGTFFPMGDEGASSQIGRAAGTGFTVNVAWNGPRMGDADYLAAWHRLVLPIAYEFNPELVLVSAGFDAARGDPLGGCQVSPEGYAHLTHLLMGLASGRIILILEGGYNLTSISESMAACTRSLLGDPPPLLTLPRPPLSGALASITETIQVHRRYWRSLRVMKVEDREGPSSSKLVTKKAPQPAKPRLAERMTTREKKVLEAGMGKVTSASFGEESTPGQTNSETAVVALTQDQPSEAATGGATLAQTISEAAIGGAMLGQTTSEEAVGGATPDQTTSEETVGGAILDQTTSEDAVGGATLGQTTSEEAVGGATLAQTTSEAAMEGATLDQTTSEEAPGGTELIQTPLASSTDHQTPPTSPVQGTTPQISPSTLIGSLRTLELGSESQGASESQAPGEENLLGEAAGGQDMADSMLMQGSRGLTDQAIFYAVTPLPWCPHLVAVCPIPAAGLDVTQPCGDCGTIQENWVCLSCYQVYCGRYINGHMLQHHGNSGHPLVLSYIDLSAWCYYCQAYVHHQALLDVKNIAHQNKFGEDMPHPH
Put plainly: HDAC6 enzyme inhibitory activity (HDAC-Glo I/II Assay kit). The assay is classed as biochemical. The following applies: 10 μM; wells without enzyme = 100% inhibition. Put shortly: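 Inhibition is calculated as relative activity, taking luminescence in enzyme-free wells as complete inhibition. The enzyme, full-length and GST-purified after Sf-9 expression, was exposed to compound for 60 min at room temperature before a 20 min HDAC-Glo reaction.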
On to `O=C(N[C@@H]1CCCC[C@H]1N1Cc2ccc(-c3nnc(C(F)F)o3)cc2C1=O)C1CC12CCC2` (stereo partly drawn) [Example 119, N-((1R,2R)-2-(6-(5-(difluoromethyl)-1,3,4-oxadiazol-2-yl)-1-oxo-1,3-dihydro-2H-isoindol-2-yl)cyclohexyl)spiro[2.3]hexane-1-carboxamide (optical isomer)], for which the “HDAC6 inhibitory rate (%) (10 μM)” value was found to be 100%. Turning to `O=C(N[C@@H]1CCCC[C@H]1N1Cc2ccc(-c3nnc(C(F)F)o3)cc2C1=O)C1CC1(F)F` (stereo partly drawn) [Example 121, N-((1R,2R)-2-(6-(5-(difluoromethyl)-1,3,4-oxadiazol-2-yl)-1-oxo-1,3-dihydro-2H-isoindol-2-yl)cyclohexyl)-2,2-difluorocyclopropanecarboxamide (optical isomer)], the “HDAC6 inhibitory rate (%) (10 μM)” value is 100%.

Still in this assay, the particulars now being: 10 μM; wells without enzyme = 100% inhibition; read-out: HDAC6 inhibitory rate (%) (10 μM).
On to `O=C1c2cc(-c3nnc(C(F)F)o3)ccc2CN1c1ccccc1Br` [Example 112, 2-(2-bromophenyl)-6-(5-(difluoromethyl)-1,3,4-oxadiazol-2-yl)isoindolin-1-one], for which the inhibition at 10 µM was found to be 95%. Regarding `O=C(N[C@@H]1CCCC[C@H]1N1Cc2ccc(-c3nnc(C(F)F)o3)cc2C1=O)[C@H]1CCCO1` [Example 113, (2R)-N-((1R,2R)-2-(6-(5-(difluoromethyl)-1,3,4-oxadiazol-2-yl)-1-oxo-1,3-dihydro-2H-isoindol-2-yl)cyclohexyl)tetrahydrofuran-2-carboxamide], the inhibition at 10 µM is 102%. Still for that read-out and setting: under `O=C(N[C@@H]1CCCC[C@H]1N1Cc2ccc(-c3nnc(C(F)F)o3)cc2C1=O)[C@H]1CCOC1` [Example 114, (3S)-N-((1R,2R)-2-(6-(5-(difluoromethyl)-1,3,4-oxadiazol-2-yl)-1-oxo-1,3-dihydro-2H-isoindol-2-yl)cyclohexyl)tetrahydrofuran-3-carboxamide] stands 100%. The same measure, in the same setting: as for `C[C@H](C1CC1)N1Cc2ccc(-c3nnc(C(F)F)o3)cc2C1=O` [Example 115, 2-((1R)-1-cyclopropylethyl)-6-(5-(difluoromethyl)-1,3,4-oxadiazol-2-yl)isoindolin-1-one], the figure is 96%; as for `C[C@@H](C1CC1)N1Cc2ccc(-c3nnc(C(F)F)o3)cc2C1=O` [Example 116, 2-((1S)-1-cyclopropylethyl)-6-(5-(difluoromethyl)-1,3,4-oxadiazol-2-yl)isoindolin-1-one], 98%. For the compound `CCCCO[C@H]1CC[C@H](N2Cc3ccc(-c4nnc(C(F)F)o4)cc3C2=O)CC1` [Example 117, 2-(trans-4-butoxycyclohexyl)-6-(5-(difluoromethyl)-1,3,4-oxadiazol-2-yl)isoindolin-1-one], the inhibition at 10 µM worked out at 96%. The same measure, in the same setting: under `O=C1c2cc(-c3nnc(C(F)F)o3)ccc2CN1C1CCOCC1` [Example 122, 6-(5-(difluoromethyl)-1,3,4-oxadiazol-2-yl)-2-(tetrahydro-2H-pyran-4-yl)isoindolin-1-one] stands 95%. `O=C1c2cc(-c3nnc(C(F)F)o3)ccc2CN1[C@@H]1CCCC[C@H]1n1ccnn1` [Example 123]: the inhibition at 10 µM came out at 101%.

On to `O=C1CCCN1[C@@H]1CCCC[C@H]1N1Cc2c(F)cc(-c3nnc(C(F)F)o3)cc2C1=O` [Example 124, 6-(5-(difluoromethyl)-1,3,4-oxadiazol-2-yl)-4-fluoro-2-((1R,2R)-2-(2-oxopyrrolidin-1-yl)cyclohexyl)isoindolin-1-one], for which the inhibition at 10 µM stood at 99%.

Take `CC(C)(C)OC(=O)N1CC[C@@H](N2Cc3ccc(-c4nnc(C(F)F)o4)cc3C2=O)[C@@H](c2ccccc2)C1` [Example 125, tert-butyl (3S,4R)-4-(6-(5-(difluoromethyl)-1,3,4-oxadiazol-2-yl)-1-oxo-1,3-dihydro-2H-isoindol-2-yl)-3-phenylpiperidine-1-carboxylate]: the inhibition at 10 µM amounted to 98%. As for `O=C1c2cc(-c3nnc(C(F)F)o3)ccc2CN1[C@@H]1CCNC[C@@H]1c1ccccc1` [Example 126, 6-(5-(difluoromethyl)-1,3,4-oxadiazol-2-yl)-2-((3S,4R)-3-phenylpiperidin-4-yl)isoindolin-1-one], the inhibition at 10 µM came out at 100%.

With `CC(=O)N1CC[C@@H](N2Cc3ccc(-c4nnc(C(F)F)o4)cc3C2=O)[C@@H](c2ccccc2)C1` [Example 127, 2-((3S,4R)-1-acetyl-3-phenylpiperidin-4-yl)-6-(5-(difluoromethyl)-1,3,4-oxadiazol-2-yl)isoindolin-1-one], the inhibition at 10 µM is 100%. As to `COC(=O)N1CC[C@@H](N2Cc3ccc(-c4nnc(C(F)F)o4)cc3C2=O)[C@@H](c2ccccc2)C1` [Example 128, methyl (3S,4R)-4-(6-(5-(difluoromethyl)-1,3,4-oxadiazol-2-yl)-1-oxo-1,3-dihydro-2H-isoindol-2-yl)-3-phenylpiperidine-1-carboxylate], the inhibition at 10 µM came out at 100%. The same measure, in the same setting: under `O=C1c2cc(-c3nnc(C(F)F)o3)ccc2CN1c1ccccc1-c1ccccc1` [Example 129, 2-(biphenyl-2-yl)-6-(5-(difluoromethyl)-1,3,4-oxadiazol-2-yl)isoindolin-1-one] stands 100%. For `CCOC(=O)N1CCC(N2Cc3ccc(-c4nnc(C(F)F)o4)cc3C2=O)CC1` [Example 130, ethyl 4-(6-(5-(difluoromethyl)-1,3,4-oxadiazol-2-yl)-1-oxo-1,3-dihydro-2H-isoindol-2-yl)piperidine-1-carboxylate], the inhibition at 10 µM was found to be 93%. As for `O=C(N[C@@H]1CCCC[C@H]1N1Cc2ccc(-c3nnc(C(F)F)o3)cc2C1=O)OCC(F)F` [Example 131, 2,2-difluoroethyl ((1R,2R)-2-(6-(5-(difluoromethyl)-1,3,4-oxadiazol-2-yl)-1-oxo-1,3-dihydro-2H-isoindol-2-yl)cyclohexyl)carbamate], the inhibition at 10 µM is 99%. `O=C(N[C@@H]1CCCC[C@H]1N1Cc2ccc(-c3nnc(C(F)F)o3)cc2C1=O)OCCC(F)(F)F` [Example 132, 3,3,3-trifluoropropyl ((1R,2R)-2-(6-(5-(difluoromethyl)-1,3,4-oxadiazol-2-yl)-1-oxo-1,3-dihydro-2H-isoindol-2-yl)cyclohexyl)carbamate]: the inhibition at 10 µM was found to be 94%. For `O=C1c2cc(-c3nnc(C(F)F)o3)ccc2CN1c1ccccc1-c1ccc(C(F)(F)F)cc1` [Example 133, 6-(5-(difluoromethyl)-1,3,4-oxadiazol-2-yl)-2-(4′-(trifluoromethyl)biphenyl-2-yl)isoindolin-1-one], the inhibition at 10 µM worked out at 93%. The same measure, in the same setting: as for `COc1ccc(-c2ccccc2N2Cc3ccc(-c4nnc(C(F)F)o4)cc3C2=O)cc1` [Example 134, 6-(5-(difluoromethyl)-1,3,4-oxadiazol-2-yl)-2-(4′-methoxybiphenyl-2-yl)isoindolin-1-one], the figure is 101%.

`O=C1c2cc(-c3nnc(C(F)F)o3)cc(F)c2CN1Cc1ccccc1` [Example 136, 2-benzyl-6-(5-(difluoromethyl)-1,3,4-oxadiazol-2-yl)-4-fluoroisoindolin-1-one]: the inhibition at 10 µM came out at 99%.

Turning to `O=C1CCCCN1[C@@H]1COCC[C@H]1N1Cc2c(F)cc(-c3nnc(C(F)F)o3)cc2C1=O` [Example 137, 6-(5-(difluoromethyl)-1,3,4-oxadiazol-2-yl)-4-fluoro-2-((3S,4R)-3-(2-oxopiperidin-1-yl)tetrahydro-2H-pyran-4-yl)isoindolin-1-one], the inhibition at 10 µM is 98%.

For `O=C1OCCN1[C@@H]1CCCC[C@H]1N1Cc2c(F)cc(-c3nnc(C(F)F)o3)cc2C1=O` [Example 138, 6-(5-(difluoromethyl)-1,3,4-oxadiazol-2-yl)-4-fluoro-2-((1R,2R)-2-(2-oxo-1,3-oxazolidin-3-yl)cyclohexyl)isoindolin-1-one], the inhibition at 10 µM was 98%.

`O=C1c2cc(-c3nnc(C(F)F)o3)cnc2CN1Cc1ccccc1` [Example 139, 6-benzyl-3-(5-(difluoromethyl)-1,3,4-oxadiazol-2-yl)-6,7-dihydro-5H-pyrrolo[3,4-b]pyridin-5-one]: the inhibition at 10 µM was determined as 100%.
